Measurements as given in patent publication US8361796B2, “Method for generating primate cardiovascular progenitor cells for clinical use from primate embryonic stem cells or embryonic-like state cells, and their applications” (Assistance Publique—Hopitaux de Paris, priority 2008, dated 2013).

Columns and labels:
ERK1 and ERK2 = settings: read-out: IC50, aFGF-induced tyrosine phosphorylation of ERK1 and ERK2; cited from earlier work
PDGF receptor = settings: cited from earlier work
insulin receptor = insulin receptor (Homo sapiens, UniProt P06213); settings: cited from earlier work
Chain of insulin receptor (P06213 28-1382, species assumed): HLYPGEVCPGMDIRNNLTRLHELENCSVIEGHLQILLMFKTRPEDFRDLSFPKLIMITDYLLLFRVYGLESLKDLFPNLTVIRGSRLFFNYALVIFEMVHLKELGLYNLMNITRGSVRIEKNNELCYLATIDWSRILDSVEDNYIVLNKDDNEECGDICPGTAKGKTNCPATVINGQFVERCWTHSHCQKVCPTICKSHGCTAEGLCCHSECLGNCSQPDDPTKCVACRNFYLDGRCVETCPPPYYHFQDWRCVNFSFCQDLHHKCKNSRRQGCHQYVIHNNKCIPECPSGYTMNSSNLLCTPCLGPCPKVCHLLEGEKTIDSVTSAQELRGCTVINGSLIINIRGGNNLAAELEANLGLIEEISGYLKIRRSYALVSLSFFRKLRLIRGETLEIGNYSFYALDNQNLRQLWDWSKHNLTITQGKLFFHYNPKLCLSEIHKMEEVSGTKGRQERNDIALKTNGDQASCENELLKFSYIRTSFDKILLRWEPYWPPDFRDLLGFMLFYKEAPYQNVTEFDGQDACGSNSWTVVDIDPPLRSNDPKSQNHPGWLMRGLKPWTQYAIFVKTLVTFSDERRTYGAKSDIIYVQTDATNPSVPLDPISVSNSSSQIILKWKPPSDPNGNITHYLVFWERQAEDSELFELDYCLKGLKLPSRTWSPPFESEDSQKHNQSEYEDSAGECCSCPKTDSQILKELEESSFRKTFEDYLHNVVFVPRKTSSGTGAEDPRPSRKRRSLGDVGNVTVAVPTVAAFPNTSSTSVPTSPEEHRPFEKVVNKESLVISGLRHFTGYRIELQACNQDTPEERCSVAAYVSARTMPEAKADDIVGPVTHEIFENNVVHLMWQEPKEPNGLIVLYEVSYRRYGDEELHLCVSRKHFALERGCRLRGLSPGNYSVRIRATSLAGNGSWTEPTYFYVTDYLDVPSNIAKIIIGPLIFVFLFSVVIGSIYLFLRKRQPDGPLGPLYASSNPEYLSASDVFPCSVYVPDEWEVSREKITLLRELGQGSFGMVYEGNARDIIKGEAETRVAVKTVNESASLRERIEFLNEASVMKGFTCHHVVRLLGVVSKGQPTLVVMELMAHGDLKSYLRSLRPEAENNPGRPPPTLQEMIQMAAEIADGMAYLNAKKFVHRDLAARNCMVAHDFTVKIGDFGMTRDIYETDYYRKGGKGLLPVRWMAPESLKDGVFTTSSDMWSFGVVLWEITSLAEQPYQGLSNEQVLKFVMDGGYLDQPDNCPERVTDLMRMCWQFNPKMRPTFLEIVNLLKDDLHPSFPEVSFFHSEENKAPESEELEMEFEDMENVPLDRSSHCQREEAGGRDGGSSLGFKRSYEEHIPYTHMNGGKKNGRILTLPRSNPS

EGF receptor = EGF receptor (Homo sapiens, UniProt P00533); settings: cited from earlier work
Chain of EGF receptor (P00533 25-1210): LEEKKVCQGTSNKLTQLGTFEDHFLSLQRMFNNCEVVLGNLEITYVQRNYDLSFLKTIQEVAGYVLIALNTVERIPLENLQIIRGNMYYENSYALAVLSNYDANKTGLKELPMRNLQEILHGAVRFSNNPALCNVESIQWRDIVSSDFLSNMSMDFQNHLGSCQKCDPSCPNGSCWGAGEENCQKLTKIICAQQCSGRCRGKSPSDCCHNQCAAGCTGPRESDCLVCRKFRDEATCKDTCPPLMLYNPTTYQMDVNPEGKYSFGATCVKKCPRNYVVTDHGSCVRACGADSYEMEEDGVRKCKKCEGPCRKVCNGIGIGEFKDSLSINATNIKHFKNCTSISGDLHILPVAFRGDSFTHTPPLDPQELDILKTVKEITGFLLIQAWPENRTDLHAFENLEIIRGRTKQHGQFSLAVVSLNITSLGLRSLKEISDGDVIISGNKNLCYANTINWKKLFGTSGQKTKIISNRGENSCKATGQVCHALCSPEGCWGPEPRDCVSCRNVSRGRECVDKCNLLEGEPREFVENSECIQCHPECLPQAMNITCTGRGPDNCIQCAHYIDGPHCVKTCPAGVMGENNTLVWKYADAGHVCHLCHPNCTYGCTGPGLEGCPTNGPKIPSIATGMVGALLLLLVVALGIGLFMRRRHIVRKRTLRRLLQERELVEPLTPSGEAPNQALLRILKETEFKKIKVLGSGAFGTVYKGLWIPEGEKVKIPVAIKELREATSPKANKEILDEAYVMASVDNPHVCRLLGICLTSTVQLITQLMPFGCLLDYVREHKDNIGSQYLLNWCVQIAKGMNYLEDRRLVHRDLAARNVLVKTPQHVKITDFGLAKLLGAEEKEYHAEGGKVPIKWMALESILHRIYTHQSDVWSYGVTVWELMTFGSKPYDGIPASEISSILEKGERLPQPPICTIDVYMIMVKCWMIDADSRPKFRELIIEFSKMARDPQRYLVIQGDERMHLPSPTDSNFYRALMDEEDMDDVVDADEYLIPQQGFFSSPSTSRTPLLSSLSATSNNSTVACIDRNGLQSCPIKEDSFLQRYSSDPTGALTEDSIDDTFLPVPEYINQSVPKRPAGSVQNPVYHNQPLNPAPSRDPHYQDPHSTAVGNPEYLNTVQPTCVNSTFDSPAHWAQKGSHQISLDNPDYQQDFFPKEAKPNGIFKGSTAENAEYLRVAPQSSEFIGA

[1] = molecular target: fibroblast growth factor receptor 1 (FGFR1) (Homo sapiens, UniProt P11362); settings: read-out: IC50, tyrosine kinase activity of FGFR1; in the presence of 1 mM ATP; cited from earlier work
Chain of fibroblast growth factor receptor 1 (FGFR1) (P11362 22-822, species assumed): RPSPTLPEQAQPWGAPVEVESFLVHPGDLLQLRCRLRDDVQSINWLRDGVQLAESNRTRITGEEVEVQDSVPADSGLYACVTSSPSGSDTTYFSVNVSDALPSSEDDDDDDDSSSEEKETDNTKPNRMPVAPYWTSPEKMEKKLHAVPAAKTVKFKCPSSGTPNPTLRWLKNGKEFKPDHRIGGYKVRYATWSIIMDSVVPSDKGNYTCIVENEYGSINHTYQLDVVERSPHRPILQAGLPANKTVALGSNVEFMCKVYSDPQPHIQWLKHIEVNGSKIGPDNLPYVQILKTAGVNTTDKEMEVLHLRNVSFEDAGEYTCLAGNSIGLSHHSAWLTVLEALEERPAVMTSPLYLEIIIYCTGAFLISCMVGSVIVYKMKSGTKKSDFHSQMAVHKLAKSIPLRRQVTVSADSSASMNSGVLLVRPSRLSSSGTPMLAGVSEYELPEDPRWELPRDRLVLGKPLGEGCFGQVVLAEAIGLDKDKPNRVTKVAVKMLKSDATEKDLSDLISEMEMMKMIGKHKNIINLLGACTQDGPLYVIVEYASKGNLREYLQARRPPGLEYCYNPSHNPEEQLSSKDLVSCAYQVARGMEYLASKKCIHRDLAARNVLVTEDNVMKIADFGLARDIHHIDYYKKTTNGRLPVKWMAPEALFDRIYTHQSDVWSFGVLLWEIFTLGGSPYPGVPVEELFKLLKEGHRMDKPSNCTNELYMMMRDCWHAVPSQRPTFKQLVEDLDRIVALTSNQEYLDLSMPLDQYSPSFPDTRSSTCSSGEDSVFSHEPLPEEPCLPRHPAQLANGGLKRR

CD15+ cells = test: Differentiation of CD15+ sorted cells treated with VEGF or PDGF; format: cell-based, primate; settings: 10 or 50 ng/ml
Method: FIGS. 11A, 11B and 11C: CD15+ cells express cardiac, endothelial and vascular proteins markers; CD15+ sorted cells were cultured for 5 days on MEF and immunostained with the indicated markers; some cells were treated with VEGF or PDGF and immunostained with anti smooth muscle actin and myosin or CD31. Some others were cultured with human fibroblast isolated from the myocardium and stained with an anti-actinin antibody.
When cultured on human cardiac fibroblasts, CD15+ cells differentiate into actinin-positive cardiomyocytes.

Method for HUES-1 cells: HES cells were treated for 48 hrs with 10 ng/ml BMP2 in the presence or absence of 1 μM SU5402, a FGF receptor inhibitor, in low KO™SR (5%) containing KO™-DMEM.
Gene induction was tested using real time Q-PCR.

Compound	enhancement of BMP2 induction of mesodermal and cardiac genes (HUES-1 cells; 48 hrs, 10 ng/ml BMP2 with 1 μM SU5402 versus BMP2 alone)	enhancement of BMP2 instructive action (HUES-1 cells; defined (KOSR) medium, SU5402 added to BMP2)	IC50 (ERK1 and ERK2) [µM]	inhibition of tyrosine phosphorylation of the PDGF receptor (PDGF receptor)	inhibition of phosphorylation of the insulin receptor (insulin receptor)	inhibition of the kinase activity of the EGF receptor (EGF receptor)	IC50 [1] [µM]	fate of CD15+ cells (CD15+ cells)
Cc1c[nH]c(C=C2C(=O)Nc3ccccc32)c1CCC(=O)O [SU5402, 3-[3-(2-Carboxyethyl)-4-methylpyrrol-2-methylidenyl]-2-indolinone]	3-10 folds	dramatically enhanced	10 to 20	only a weak inhibitor	does not inhibit	does not inhibit	10 to 20	–
PDGF	–	–	–	–	–	–	–	smooth muscle cells
VEGF	–	–	–	–	–	–	–	endothelial
